According to PubChem BioAssay AID1996:
Values after ≈ are worked out from the molar mass of the structure shown.

Conditions: buffer; pH 7.4; 200.0 µM

Point of comparison: `COc1ccc(Nc2nccc(-c3cccc(N)c3)n2)cc1`, solubility kinetic 22.5 µg/mL (≈ 77 µM). Against it:
- COC(=O)/C=C/c1c(C)nc(NCc2ccccc2)nc1Cl — higher, > 47.7 µg/mL
- O=C(CCS(=O)(=O)c1ccccc1)NC1CCCC1 — higher, > 42.2 µg/mL
- N#Cc1c(Cl)nsc1NCCN1CCOCC1 — higher, > 40.9 µg/mL
- CN(C)c1cccc(C(=O)OCC(=O)NC2CCCC2)c1 — 1.6-fold higher, 36.6 µg/mL (≈ 126 µM)
- Cc1[nH]c(=O)c(C#N)cc1-c1csc(-c2ccccc2)n1 — 32-fold lower, 0.7 µg/mL (≈ 2.39 µM)
- O=C(/C=C/c1ccc(OCc2cccc(Cl)c2)cc1)N1CCOCC1 — 4.3-fold lower, 5.2 µg/mL (≈ 14.5 µM)
- O=C(O)c1cc([N+](=O)[O-])ccc1NCc1cccnc1 — higher, > 41 µg/mL
- COc1ccccc1CNC(=O)CSc1n[nH]c(N)n1 — higher, > 44 µg/mL
- NS(=O)(=O)c1ccc(CNC(=O)c2cc(=O)c3ccccc3o2)cc1 — 13-fold lower, 1.7 µg/mL (≈ 4.74 µM)
- CS(=O)(=O)N1CCC(C(=O)Nc2cccc(F)c2)CC1 — higher, > 45.1 µg/mL
- Nc1nnc(SCC(=O)Nc2cccnc2Cl)s1 — higher, > 45.3 µg/mL
- CCCCSCCCNC(=S)Nc1ccccc1C — 1.6-fold higher, 35.3 µg/mL (≈ 119 µM)
- O=C(COC(=O)c1ccc([N+](=O)[O-])o1)NCc1ccc2c(c1)OCO2 — higher, > 52.2 µg/mL
- C=CCNC(=O)COc1ccc(Oc2ccccc2)cc1 — higher, > 42.5 µg/mL
- COC(=O)[C@H](C)NC(=O)NCCC1=CCCCC1 — higher, > 38.1 µg/mL
- C/C(=N\NC(N)=S)c1cccnc1 — higher, > 29.1 µg/mL
- COc1ccc(CCNC(=O)c2ccc(=O)[nH]c2)cc1OC — higher, > 45.3 µg/mL
- COC(=O)c1ccccc1CSc1nsc(C)c1C#N — lower, < 0.3 µg/mL
- CCc1cccc2c(C(=O)COC(=O)[C@@H]3CC(O)CN3S(=O)(=O)c3ccccc3[N+](=O)[O-])c[nH]c12 (some centres undefined) — within 1.5-fold, 30.6 µg/mL (≈ 61 µM)
- CS(=O)(=O)N(CC(=O)Nc1ccc(F)cc1F)C1CCCCC1 — higher, > 52 µg/mL
- Cc1ccc(OCC(=O)O/N=C(\N)Cc2ccc([N+](=O)[O-])cc2)cc1C — 2.4-fold lower, 9.4 µg/mL (≈ 26.3 µM)
- CC1CCC2(CC1)NC(=O)N(CC(=O)N1c3ccccc3CC1C)C2=O (centres undefined) — 4.3-fold lower, 5.2 µg/mL (≈ 14.6 µM)
- O=C(Nc1nc(-c2ccc(Cl)s2)cs1)c1ccco1 — 2.4-fold lower, 9.2 µg/mL (≈ 29.6 µM)
- CC1CCCN(C(=O)C2CCN(S(=O)(=O)c3ccccc3)CC2)C1 (centres undefined) — higher, > 52.6 µg/mL
- O=C(Cc1cccs1)Nc1nc(-c2cccnc2)cs1 — 4.2-fold lower, 5.3 µg/mL (≈ 17.6 µM)
- NC(=O)NC(c1ccc(Cl)cc1)c1ccccc1Cl (centres undefined) — higher, > 44.3 µg/mL
- CCC(=O)Nc1cccc(C(=O)OC)c1 — within 1.5-fold, 29.4 µg/mL (≈ 142 µM)
- Cc1ccc(C(=O)O/N=C/c2ccc(N(C)C)cc2)cc1 — 9.4-fold lower, 2.4 µg/mL (≈ 8.5 µM)
- CN1CCN(C(=O)c2cc([N+](=O)[O-])cc([N+](=O)[O-])c2)CC1 — within 1.5-fold, 31.4 µg/mL (≈ 107 µM)
- O=C(Nc1nc(-c2ccccc2)cs1)c1ccco1 — within 1.5-fold, 22.3 µg/mL (≈ 82.5 µM)
- CC1CN(S(=O)(=O)c2cccc(C(=O)NCc3ccccn3)c2)CC(C)O1 (centres undefined) — higher, > 58.4 µg/mL
- COc1cc(OC)cc(C(=O)NCCOC23CC4CC(CC(C4)C2)C3)c1 — within 1.5-fold, 31.3 µg/mL (≈ 87.1 µM)
- CCCNC(=O)CN1C(=O)c2ccccc2Sc2ncccc21 — higher, > 49.1 µg/mL
- O=S(=O)(c1ccccc1)N(Cc1ccccn1)Cc1ccccn1 — higher, > 50.9 µg/mL
- Cc1ccccc1CS(=O)(=O)CC(O)CN1CCCC1=O (centres undefined) — higher, > 46.7 µg/mL
- O=C(Cc1csc(NC(=O)c2ccc(F)cc2)n1)NO — higher, > 44.3 µg/mL
- Cc1cc2ccccn2c1C(=O)c1ccc([N+](=O)[O-])o1 — 17-fold lower, 1.3 µg/mL (≈ 4.81 µM)
- Cc1cccc(C(=O)NCC(C)NC(=O)c2cccc(C)c2)c1 (centres undefined) — within 1.5-fold, 23.7 µg/mL (≈ 76.4 µM)
- Cc1c(C(=O)O)cccc1-c1ccc(/C=C2\SC(=O)NC2=O)o1 — higher, > 49.4 µg/mL
- O=c1[nH]c(-c2cccnc2)nc2sc(-c3ccccc3)cc12 — 110-fold lower, 0.2 µg/mL (≈ 0.655 µM)
- CC1CN(CC(=O)NCc2ccccc2)CC(C)O1 (centres undefined) — 1.6-fold higher, 36.1 µg/mL (≈ 138 µM)
- COC(=O)c1ccc(COC(=O)CNC(=O)c2ccc(OC)cc2)cc1 — within 1.5-fold, 17.3 µg/mL (≈ 48.4 µM)
- FC(F)(F)c1cccc(-c2nc(COc3ccc(Cl)cc3Cl)no2)c1 — lower, < 0.4 µg/mL
- Cn1c(=O)c2cnc(-c3ccc(C(F)(F)F)cc3)nc2n(C)c1=O — lower, < 0.2 µg/mL
- O=C(/C=C/c1ccccc1)OCc1cncs1 — within 1.5-fold, 32.2 µg/mL (≈ 131 µM)
- CCCCCCCOc1ccc(C2(C)NC(=O)NC2=O)cc1 (centres undefined) — 2.4-fold lower, 9.3 µg/mL (≈ 30.6 µM)
- CC1CCN(C(=O)c2cc3c(ccc4ccccc43)o2)CC1 — lower, < 0.6 µg/mL
- O=S(=O)(c1ccc(Cl)cc1)N1CCNCC1 — higher, > 39.1 µg/mL
- CCNC(=O)COC(=O)Cc1ccc(Cl)cc1Cl — higher, > 43.5 µg/mL
- CC(=O)c1sc(-c2ccc(Cl)cc2)nc1C — lower, < 0.5 µg/mL
- COc1ccc(CC(=O)NCCN2CCOCC2)cc1 — higher, > 41.8 µg/mL
- CC(C)(C)NC(=O)c1cc2c(ccc3ccccc32)oc1=O — 9-fold lower, 2.5 µg/mL (≈ 8.46 µM)
- CN1CCN(C(=O)c2ccc(-c3ccccc3)cc2)CC1 — higher, > 42.1 µg/mL
- CCOc1ccc(-n2c(-c3cccs3)nc3ccccc3c2=O)cc1 — 45-fold lower, 0.5 µg/mL (≈ 1.44 µM)
- CC(=O)Nc1ccc(NC(=O)CCc2ccc(C)o2)cc1 — higher, > 42.9 µg/mL
- Cc1cccc(C(C)C)c1NC(=O)c1cc2ccccc2o1 — 3.7-fold lower, 6.1 µg/mL (≈ 20.8 µM)
- O=C(COc1ccc(Cl)cc1Cl)OCC(=O)c1ccc[nH]1 — 2.7-fold lower, 8.2 µg/mL (≈ 25 µM)
- COCCCn1c(=O)c2sccc2n(Cc2cccc(C)c2)c1=O — within 1.5-fold, 15.1 µg/mL (≈ 43.8 µM)
